{
  "source": "patent US20250186556A1",
  "about": "“COMBINATION THERAPY WITH IMMUNOMODULATORS, DYRK1A INHIBITORS, AND GLP1R AGONISTS FOR TYPE 1 DIABETES TREATMENT” (ICAHN SCHOOL OF MEDICINE AT MOUNT SINAI, priority 2022, published 2025)",
  "key": {"human β-cells [1]": {"test_system": "human β-cells", "assay": "Human islet single cell RNA sequencing (scRNA-seq), gene set enrichment in β-cells", "type": "cell-based", "settings": "human islets, 10 μM harmine, 10 nM exendin-4, 6 h", "description": "After treatment, human islets were washed twice with PBS and centrifuged at 300 rpm for three min. After removing the PBS, 200 μl pre-warmed Accutase was added and the islets were incubated at 37° C. for 10 minutes. Then, complete RPMI medium was added, the sample centrifuged at 1000 rpm for three min, and the pellet was washed with PBS. Cells were then resuspended in binding buffer (Miltenyi Biotec) and dead cell removal beads, the tube was incubated for 15 minutes at room temperature and the cell suspension applied onto the dead cell removal column (Miltenyi Biotec), which was attached to the MACS separator. […]\nCell samples were prepared according to the user guide of 10× Genomics Single Cell 3′ V3.1 Reagent Kit, processed with 10× Genomic Chromium Controller for partitioning and barcoding, followed by the cDNA library generation. The total cell concentration analyzed by the Countess 3 was then sequenced by the NovaSeq 6000 System (Illumina). […] After the 10×, h5 format file was generated, the data were analyzed on the R language platform with Seurat package V.4.0. […]\nAfter assessment of the data quality control parameters as above, integrated scRNA-data were created with Seurat's SCTransform function without allocating method parameters. […] After enrichment scores were calculated for each single cell, they were added to the Meta data for analysis and visualization by dotplot."}, "human β-cells [2]": {"test_system": "human β-cells", "assay": "Analysis of human β-cell death in vitro (TUNEL/insulin staining)", "type": "cell-based", "settings": "10 μM harmine, 10 nM exendin-4, 24 hours, TUNEL", "method": "Briefly, after washing the human islets with PBS twice, 200 μl pre-warmed Accutase (Corning) was added, and the tube was incubated at 37° C. for 10 minutes. Then, complete RPMI medium (RPMI with 5 mM D-glucose, 10% FBS, 100 units/ml penicillin, and 100 μg/ml streptomycin) was added, the sample was centrifuged at 1000 rpm for three min, the pellet was washed with PBS and centrifuged again at 1000 rpm for three min. The pellet was resuspended in complete RPMI medium and 50,000 cells/well were plated on 12-mm glass coverslips, placed in 24-well plates, and incubated at 37° C. and 5% CO2 for 24 hours. […] Cells were incubated at 37° C. and 5% CO2 for 24 hours. Then, cells were fixed in 4% paraformaldehyde and TUNEL (cell death marker) and insulin staining were performed using the DeadEnd Fluorometric TUNEL System (Promega), anti-proinsulin/C-peptide antibody (DSHB), and DAPI for nuclei detection. A minimum of 1,500 β-cells were examined per coverslip."}, "[3]": {"test_system": "patients with new-onset type 1 diabetes", "settings": "for up to seven years following initial diagnosis; cited from earlier work"}},
  "data": [
    {"compound": "COc1ccc2c(c1)[nH]c1c(C)nccc12", "note": "[harmine]", "values": [
      {"measurement": "inhibitory HLA-E expression in β-cells treated with cytokines", "setting": "human β-cells [1]", "value": "increased"},
      {"measurement": "expression of pro-inflammatory, intrinsic and extrinsic apoptosis, HLA class I, chemokines CXCL9-11 and interferon regulatory factor 1-9 signaling pathways in β-cells treated with cytokines", "setting": "human β-cells [1]; GSEA", "value": "not with the drugs alone"},
      {"measurement": "human β-cell death induced by thapsigargin", "setting": "human β-cells [2]; 500 nM thapsigargin", "value": "non-significant, partial protection"},
      {"measurement": "human β-cell death induced by cytokines", "setting": "human β-cells [2]; cytokines IL-1β, TNF-α, IFN-γ", "value": "non-significant, partial protection"}
    ]},
    {"compound": "teplizumab: humanized, non-mitogenic aglycosylated anti-CD3 monoclonal antibody", "values": [
      {"measurement": "loss of β-cell function", "setting": "[3]", "value": "reduces the loss of β-cell function"}
    ]}
  ]
}
